Key:
MMP2 [1] = target: T1, MMP2 (Homo sapiens, UniProt P08253); assay: Inhibition of MMP2-induced collagen degradation in human dermal fibroblast (HDF) cells, pro-collagen type I kit; type: cell-based; parameters: purchased SIGMA/USA; host or cells: added to human dermal fibroblast (HDF) cells; details: MMP2 20 ng/ml co-treatment, 6 hours, or after IGF-1 100 ng/ml, 4 hours, pro-collagen type I in supernatant
T1 sequence (P08253 110-660): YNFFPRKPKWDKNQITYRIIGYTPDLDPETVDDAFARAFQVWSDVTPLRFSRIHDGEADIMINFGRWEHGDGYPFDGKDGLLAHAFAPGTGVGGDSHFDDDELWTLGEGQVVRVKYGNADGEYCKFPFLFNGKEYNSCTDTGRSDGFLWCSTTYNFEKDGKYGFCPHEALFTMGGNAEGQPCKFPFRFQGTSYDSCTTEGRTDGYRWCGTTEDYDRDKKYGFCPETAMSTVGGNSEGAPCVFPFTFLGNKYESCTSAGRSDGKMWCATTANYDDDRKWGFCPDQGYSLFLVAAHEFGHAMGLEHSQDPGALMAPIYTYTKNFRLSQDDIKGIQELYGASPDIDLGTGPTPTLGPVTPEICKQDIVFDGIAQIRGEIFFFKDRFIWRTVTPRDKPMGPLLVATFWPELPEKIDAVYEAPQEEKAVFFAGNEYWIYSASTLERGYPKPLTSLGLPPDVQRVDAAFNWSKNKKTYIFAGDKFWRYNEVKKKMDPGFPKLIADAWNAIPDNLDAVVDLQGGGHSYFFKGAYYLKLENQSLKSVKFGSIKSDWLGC
Procedure: Human dermal fibroblast (HDF) cells (3×10^4) were seeded in a 24-well plate. The next day, the cells were incubated in 5% serum medium for 42 hours, treated with MMP2 (20 ng/ml, SIGMA/USA) and CG-Noverin or CG-Renuin, respectively, and incubated for 6 hours. The supernatant obtained from centrifugation at 14,000×g for 10 minutes was analyzed using the pro-collagen type I kit (RnD system/USA).
Human dermal fibroblast (HDF) cells (3×10^4) were seeded in a 24-well plate, and then the next day, the medium was exchanged with a 5% serum medium. The cells were treated with IGF-1 (100 ng/ml, Sigma/USA), followed by incubation for 44 hours, and then the cells were treated with MMP2 (20 ng/ml) and CG-Noverin or CG-Renuin, respectively, followed by incubation for 4 hours. The supernatant obtained from centrifugation at 14,000×g for 10 minutes was analyzed using the pro-collagen type I kit.

[2] = test system: Human primary dermal fibroblast cells; assay: Human primary dermal fibroblast cell proliferation, SRB assay; type: cell-based; details: 1 ng/ml to 1 ug/ml, 72 hours, SRB assay OD 590 nm
Procedure: Human primary dermal fibroblast cells were treated with CG-Renuin (peptide of SEQ ID NO: 1) and CG-Noverin (peptide of SEQ ID NO: 2) at different concentrations (1 ng/ml to 1 ug/ml), and the cells were incubated for 72 hours in a cell incubator. Then, the cell proliferation change by the peptide treatment was analyzed through SRB assay (OD 590 nm).

NIH3T3 cells = assay: Western blotting of pERK and p38 in UVA-irradiated cells; type: cell-based; details: 1-10 ug/ml, 30 minutes, then UVA (8 J), 24 hours
Procedure: NIH3T3 cells ([…]) were seeded in a 6-well plate at a cell density of 2×10^5 cells/well, followed by incubation overnight, and then the cells were treated with CG-Renuin or CG-Noverin peptides at different concentrations (1-10 ug/ml), followed by incubation at 37 °C for 30 minutes. Then, the cells were irradiated with UVA (8 J), followed by incubation for 24 hours. The lysates were obtained by the treatment with the cell lysis buffer, followed by protein quantification. For the confirmation of the expression of cellular activating factors, western blotting was conducted using the anti-pERK (Santa Cruz Biotechnology, USA) and p38 (Santa Cruz Biotechnology, USA) antibodies.

MMP2 [3] = target: T1, MMP2; assay: rhMMP2 inhibition by gelatin zymography; type: biochemical; details: rhMMP2 mixed with peptide 0.1 ug/ml and 1 ug/ml, room temperature, 1 hour
Procedure: (§1) After rhMMP2 was mixed with the peptides at different concentrations (0.1 ug/ml and 1 ug/ml), the incubation was conducted at room temperature for 1 hour. Then, in order to investigate the expression of rhMMP2 through gelatin zymography, protein electrophoresis (SDS-PAGE) was conducted using gelatin (2 mg/ml) as a substrate. After the electrophoresis, the gel was immersed in 2.5% Triton X-100 for 30 minutes, and then incubated in a buffer containing 50 mM Tris-HCl, 0.2 M NaCl, 5 mM CaCl2), and 1% Triton X-100 at 37 °C for 24 hours. After the incubation, the gel was stained with Coo-massie Brilliant Blue R250 (Sigma), and de-stained with a solution containing 5% methanol, 7.5% acetic acid, and distilled water. In addition, the bands formed by gelatin hydrolysis were observed.

HaCaT keratinocytes = assay: Melanosome transfer: phagocytosis assay with fluorescent bioparticles; type: cell-based; details: trypsin 1 μg/ml induction, peptide 1 μg/ml, 48 hours; trypsin treatment group considered 100%
Procedure: In order to observe melanosome transfer, phagocytosis assay was conducted using HaCaT keratinocytes. Bioparticles with a fluorescence substance attached thereto were used as a substance for phagocytosis. The cells were seeded in a 96-well tissue culture plate at 3×10^3 cells/well, incubated for 24 hours, and then incubated in a serum-free medium for 6 hours. Thereafter, for the induction of phagocytosis, the cells were treated with 1 μg/ml of trypsin, and then the cells were treated with 1 μg/ml of peptides for 48 hours. As a result, it was confirmed through a fluorescent microscope that the bioparticles were phagocytized into keratocytes. From the observation when the data with respect to a phagocytosis induction group, that is, a trypsin treatment group, were considered to be 100%, it was verified that phagocytosis was inhibited in the CG-Noverin treatment group and the CG-Renuin treatment group.

MMP2 [4] = target: T2, MMP2 (Mus musculus, UniProt P33434); assay: MMP2 activity in TNF-α-induced fibroblast cells (NIH3T3), gelatin zymography; type: cell-based; details: NIH3T3, MMP2 induced by TNF-α; 10, 100, 1000 ng/ml, 24 hours
T2 construct: endogenous in cells; host or cells: NIH3T3
Procedure: as §1, with “Fibroblast cells (NIH3T3) were seeded in a 24-well plate at a cell density of 3×10^4 cells/well. The next day, the cells were incubated in serum-less medium for 24 hours, and the expression and activation of MMP2 were induced by TNF-α. The cells were treated” for “After rhMMP2 was mixed”, “CG-Renuin or CG-Noverin” for “the peptides”, “(10 ng/ml, 100 ng/ml, 1000 ng/ml), followed by incubation for 24 hours. The supernatant obtained from centrifugation at 14,000×g for 10 minutes was incubated,” for “(0.1 ug/ml”, “then,” for “1 ug/ml), the incubation was conducted at room temperature for 1 hour. Then,”, “MMP2” for “rhMMP2”

T2 sequence (P33434 110-662): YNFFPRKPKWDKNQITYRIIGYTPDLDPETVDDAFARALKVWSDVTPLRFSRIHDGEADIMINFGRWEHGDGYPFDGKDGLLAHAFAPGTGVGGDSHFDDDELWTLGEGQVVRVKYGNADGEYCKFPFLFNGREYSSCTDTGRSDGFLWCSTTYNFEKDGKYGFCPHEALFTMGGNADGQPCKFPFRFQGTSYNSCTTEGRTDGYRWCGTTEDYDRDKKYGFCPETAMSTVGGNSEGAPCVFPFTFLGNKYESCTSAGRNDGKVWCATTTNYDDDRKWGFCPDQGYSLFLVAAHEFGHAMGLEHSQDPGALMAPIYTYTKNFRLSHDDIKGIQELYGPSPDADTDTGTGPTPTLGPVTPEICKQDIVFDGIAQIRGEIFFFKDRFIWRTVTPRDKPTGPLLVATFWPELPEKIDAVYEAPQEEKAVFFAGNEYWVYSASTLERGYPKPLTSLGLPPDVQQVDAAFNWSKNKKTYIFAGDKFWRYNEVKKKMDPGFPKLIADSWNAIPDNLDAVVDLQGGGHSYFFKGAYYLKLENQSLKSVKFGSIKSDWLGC

Row | Substance | collagen degradation induced by MMP2 (MMP2 [1]) | proliferation of human primary dermal fibroblast cells [2] | phosphorylation of ERK (NIH3T3 cells) | phosphorylation of P38 (NIH3T3 cells) | MMP2 activity (gelatin zymography) (MMP2 [3]) | phagocytosis (melanosome transfer) (HaCaT keratinocytes) | MMP2 activity in fibroblast cells (MMP2 [4])
1 | NH2-Cys-Pro-Arg-His-Phe-Asn-Pro-Val-Cys-COOH (H-CPRHFNPVC-OH; cysteine pairing not given here) [CG-Noverin] | inhibited the induction of collagen degradation | increased depending on the treatment amount | increased | increased | directly inhibited | inhibited | inhibited
2 | NH2-Cys-Thr-Lys-Ile-Tyr-Asp-Pro-Val-Cys-COOH (H-CTKIYDPVC-OH; cysteine pairing not given here) [CG-Renuin] | inhibited the induction of collagen degradation | increased depending on the treatment amount | increased | increased | directly inhibited | inhibited | inhibited

Source: patent US10487113B2, “Peptide having activity to improve skin condition and use thereof” (CAREGEN CO., LTD., priority 2014, dated 2019)
